Reference: PMC11374673, “Discovery of isoquinoline sulfonamides as allosteric gyrase inhibitors with activity against fluoroquinolone-resistant bacteria” (Nature Chemistry, 2024)
Converted amounts (≈) assume the structure as drawn. Where two headings read alike, the source gives them in different places.

Tests used:
[1] = system: K. pneumoniae ATCC 29665; assay: MIC by broth microdilution; assay type: cell-based, Klebsiella pneumoniae; conditions: read-out: MIC K. pneumoniae ATCC 29665
Procedure: (§1) MIC was determined by broth microdilution. Single-colony cultures were grown to exponential phase (OD600 of 0.5) aerobically at 37 °C. In case of strains from the Keio collection, 50 µg ml^−1 kanamycin was supplemented to the media to ascertain a homogeneous population. The bacterial suspensions were diluted 100-fold in CAMHB and 50 µl was added to a twofold serial dilution series of test compounds (50 µl per well) in polypropylene 96-well microtitre plates to reach a volume of 100 µl. The plates were sealed with breathable membranes and incubated overnight at 37 °C with constant shaking (600 r.p.m.).

[2] = system: E. coli W3110; assay: MIC by broth microdilution; assay type: cell-based, Escherichia coli; conditions: for MIC: broth microdilution, read-out: MIC E. coli W3110; for antimicrobial activity: relative to parent compound
Procedure: as §1

[3] = Klebsiella pneumoniae, ATCC29665, broth microdilution

SMILES | MIC [1, 3] [µM] | MIC ([1]; broth microdilution) [µM] | MIC ([2]; Escherichia coli, W3110, WT) [µM] | MIC ([2]; WT) [µM] | antimicrobial activity [2]
O=S(=O)(NCCNCc1ccc(-c2ccccc2)nc1)c1cccc2cnccc12 [Compound 80] | > 50 | >50 | > 50 | >50 | 
O=S(=O)(NCCNCc1ccc(-c2cccnc2)cc1)c1ccc2cn[nH]c2c1 [Compound 50] | > 50 | >50 | > 50 | >50 | 
O=S(=O)(NCCNCc1ccc(-c2cccnc2)cc1)c1ccnc2[nH]ccc12 [Compound 54] | > 50 | >50 | > 50 | >50 | 
O=S(=O)(NCCOCc1ccc(-c2cccnc2)cc1)c1cccc2cnccc12 [Compound 94] | > 50 | >50 | > 50 | >50 | abolished all activity

More lines, main results first:

MIC [1, 3] [µM] | MIC ([1]; broth microdilution) [µM] | MIC ([2]; Escherichia coli, W3110, WT) [µM] | MIC ([2]; WT) [µM] | SMILES | antimicrobial activity [2]
> 50 | 50 (≈ 20.9 µg/mL) | 25 (≈ 10.4 µg/mL) |  | O=S(=O)(NCCNCc1ccc(-c2cccnc2)cc1)c1cccc2ccccc12 [Compound 47] | fourfold reduced activity
> 50 | >50 | > 50 | >50 | O=S(=O)(NCCNCc1ccc(-c2ccc(F)cc2)nc1)c1cccc2cnccc12 [Compound 82] | 
> 50 | >50 | > 50 | >50 | O=S(=O)(NCCNCc1ccc(-c2ccccc2)c(Cl)c1)c1cccc2cnccc12 [Compound 84] | 
> 50 | >50 | > 50 | >50 | Cc1ccc(-c2ccc(CNCCNS(=O)(=O)c3cccc4cnccc34)cc2)cc1 [Compound 62] | 
> 50 | >50 | > 50 | >50 | CNC(=O)c1ccc(S(=O)(=O)NCCNCc2ccc(-c3cccnc3)cc2)cn1 [Compound 51] | 
